Assay results taken from patent US20250369863A1, “METHOD FOR DETERMINING A STATUS OF A CO-CULTURE” (Universiteit Antwerpen, priority 2022, published 2025).

Test system: co-culture of patient-derived pancreatic tumor organoids (TCO) and cancer associated fibroblast (SCT)
Assay: co-culture of patient-derived pancreatic tumor organoids and cancer associated fibroblasts, stroma parameters from fluorescent images
Type: cell-based
Settings: for stroma growth rate (normalized stromal growth rate): FIG. 5, FGF2 10 ng/ml; for stroma growth rate (normalized stromal growth rate) / stromal density of the micro-tumor / contractility: Nintedanib 0.5 μM; for stroma growth rate (normalized stromal growth rate) / stromal density of the micro-tumor: TGF-B 5 ng/ml; for stroma size (area): FIG. 6; for stroma size (area) / stromal size ratio: dynamic (over time) kinetic quantification; for stromal density of the micro-tumor: FIG. 10, static endpoint, compared to the control; for stromal density of the micro-tumor / contractility: FGF2 10 ng/mL; for contractility: FIGS. 7 and 8; for stromal size ratio: FIG. 9
Experimental: A co-culture was prepared of patient-derived pancreatic tumor organoids (TCO) and cancer associated fibroblast (SCT), wherein the TCO and the SCT were fluorescently labelled with the first and second fluorescent label respectively. First and second fluorescent images were recorded and the status of the sample was determined with and without contacting the sample with Nintedanib, TGFB or FGF2. Nintedanib is a known anti-fibrotic drug that inhibits fibroblast proliferation and motility. TGFB and FGF2 are growth factors that can stimulate fibroblast proliferation.

Compound	stroma growth rate (normalized stromal growth rate)	stroma size (area)	stromal density of the micro-tumor	contractility	micro-tumor formation driven by activated fibroblasts	stromal size ratio	stromal size ratio (listed as Nintedanib)	motility (shown by contractility, stromal size ratio and stromal density (FIGS. 7 to 10))
FGF2: growth factor that can stimulate fibroblast proliferation	stimulated the strongest	stimulated the strongest	only had marginal effects	have been contracted together	–	–	–	–
COC(=O)c1ccc2c(c1)NC(=O)/C2=C(\Nc1ccc(N(C)C(=O)CN2CCN(C)CC2)cc1)c1ccccc1 [nintedanib, Nintedanib]	inhibited	inhibited	reduced	lack of contractility	inhibited	reduced	inhibitory effect	inhibited
TGFB	–	–	only had marginal effects	–	–	–	–	–
